The values that follow come from US20120277211A1, “METHODS AND COMPOSITIONS FOR THE TREATMENT OF PSYCHOTIC DISORDERS THROUGH THE IDENTIFICATION OF THE SULT4A1-1 HAPLOTYPE” (priority 2009, published 2012).

Data set [1] concerns Caucasian schizophrenia patients. The experiment in a line: CATIE: hospitalization due to exacerbation of psychosis by SULT4A1-1 status. It is filed as in vivo, human. The text has this:
To assess if SULT4A1-1 status impacts the risk of hospitalization in Caucasians, the inventors assigned SULT4A1-1 status to each CATIE subject and evaluated hospitalization events due to exacerbation of psychosis. For this analysis, the inventors assigned a dichotomous value (positive or negative) for hospitalization status to subjects in each phase of the trial based on only the first hospitalization event for a given patient in that phase. Patients participating in Phases 1, 2, and/or 3 were included in the totals for the appropriate drug.
A Kaplan-Meier survival analysis was performed to determine whether there was a difference between the survival (hospitalization) rates for the SULT4A1-1 negative and SULT4A1-1 positive patient populations treated with each of the atypical antipsychotics. Survival plots model the fraction of the population that survived (i.e., no hospitalization event) as a function of time.

Data set [2] deals with schizophrenia patients. Particulars: Phase II; for Responders: decrease PANSS ≧20%, LOCF.
Data set [3] deals with schizophrenia patients. The experiment in a line: CATIE: months of successful treatment measured by the CGI scale (TMSUCC1). The class given is in vivo, human. The source says: The CATIE clinical data set included Clinical Global Impression (CGI) Scale, an observer-provided assessment of the psychiatric health of the patient (Stroup et al., 2003; Guy 1976). Patients are rated with the CGI Scale from 1 to 7, with higher scores indicating greater severity of illness. The CATIE study provided a response variable that measured the time (in months) of successful treatment as measured by the CGI scale (“TMSUCC1” in the CATIE data).

Data set [4] deals with African American schizophrenia patients. In words: CATIE: change in total PANSS (LOCF) by SULT4A1-1 haplotype status, African Americans. It is filed as in vivo, human. Particulars: for Number of individuals with change in total PANSS ≦−20% (responders) / Number of individuals with change in total PANSS ≧−20% (non-responders): LOCF. The protocol:
The design of the CATIE study has been described in detail by others (Lieberman et al., 2005; Stroup et al., 2003). […] A total of 738 subjects consented to provide DNA for genetic study. […] Retrospective genetic analyses, judged to be exempt from human studies requirements by an IRB, were conducted in the current study. All tested patients were studied using well established clinical endpoints comparing baseline, intermediate, and last observation carried forward (LOCF) for the PANSS scores using CATIE data. […] To remove time on drug as a variable for the CATIE trial, analysis was limited to only those patients who were randomized to a different drug following the initial washout period (drug switchers).

In data set [5] the test system is Caucasian schizophrenia patients. The experiment in a line: CATIE: time to discontinuation for all causes by SULT4A1-1 status. The class given is in vivo, human. The note with it: SULT4A1-1 negative. The source says: The primary endpoint for the CATIE study was time to discontinuation for all causes (Lieberman et al., 2005). Thus the inventors evaluated the effect of SULT41-1 status on this important parameter.

Data set [6] concerns schizophrenia patients. Particulars: published CATIE results (Lieberman et al. 2005); cited from earlier work.

Where two headings read alike, the source gives them in different places. Marks after values point to notes of the source that are not given here.

With `Cc1cc2c(s1)Nc1ccccc1N=C2N1CCN(C)CC1` [Olanzapine], the “HOSP, number of patients hospitalized” value in data set [1] (SULT4A1-1 negative) is listed as 22; in data set [1] (SULT4A1-1 positive), 1; in data set [1] (Unsegmented, Phases 1, 2 and/or 3, first event), 23. Besides, the figures for the “HOSP, rate of hospitalization” value in data set [1] (SULT4A1-1 positive) and in data set [1] (Unsegmented) were 2.6% and 14.2%, respectively. The Nonresponders in the data set on schizophrenia patients [2] (SULT4A1-1 Negative) is given as 14; in the data set with schizophrenia patients [2] (SULT4A1-1 Positive), 4. Also, the Responders was determined as 3 in the data set with schizophrenia patients [2] (SULT4A1-1 Negative), 3 with schizophrenia patients [2] (SULT4A1-1 Positive), 33.3% in data set [4] (SULT4A1-1 negative) and 25% in data set [4] (SULT4A1-1 positive). Further, in the data set with schizophrenia patients [2] (SULT4A1-1 Positive), the “% Responders” value is 42.9%. The “Length of successful treatment (CGI Months), Mean” value in the data set with schizophrenia patients [3] (SULT4A1-1 negative) is recorded as 5.44 Months; in the data set with schizophrenia patients [3] (SULT4A1-1 positive), 8.33^d Months; in the data set with schizophrenia patients [3] (Unsegmented), 6.10 Months. Also, the “Number of individuals with change in total PANSS ≦−20% (responders)” value in data set [4] (SULT4A1-1 negative) was found to be 15; in data set [4] (SULT4A1-1 positive), 1. The “Number of individuals with change in total PANSS ≧−20% (non-responders)” value in data set [4] (SULT4A1-1 negative) was found to be 30; in data set [4] (SULT4A1-1 positive), 3. Also, the “Time to discontinuation, mean” value in data set [5] is 10.0** Months. Also, the “Incidence of clinically significant weight gain compared to other drugs” value with schizophrenia patients [6] is reported as “higher incidence of clinically significant weight gain”.
